The values that follow come from patent US5262426A, “N,N'-cycloalkyl/alkyl carboxamide 4H-imidazo-[4,5-b]pyridine compounds as PAF antagonists” (G. D. Searle & Co., priority 1993, dated 1993).

Assay [1] has as its target T1, PAF receptor (human platelet membrane preparation) (Homo sapiens, UniProt P25105).
T1 construct: human platelet membrane preparation; tissue Lifesource, Inc. (Glenview, Ill.); host or cells: human packed platelets (washed, freeze-thaw broken, membrane pellet)
The experiment in a line: Assay A: Human Platelet Receptor Binding ([3H]PAF). The note with it: for pIC50: 0.75 nM [3H]PAF, 30 minutes at 24° C. The protocol:
Assay A: Human Platelet Receptor Binding
Compounds of the invention were evaluated for their ability to inhibit specific binding of [^3 H]PAF to human platelet membrane preparation. Human packed platelets were obtained from Lifesource, Inc. (Glenview, Ill.) and washed 3 times with 10 mM Trizma pH 7.0, 2 mM EDTA (dipotassium salt), 150 mM KCl and then once with 10 mM Trizma 7.4, 20 mM CaCl2. The platelets were broken by freezing in a dry ice-ethanol bath, followed by thawing in 24° C. water baths. The preparation was centrifuged (40,000 x g, 20 minutes, 4'C) and the pellet resuspended in 10 mM Trizma 7.4, 20 mM CaCl2, 5 mg/ml human albumin. Protein concentration in the platelet membrane preparation was determined by the Lowry method [0. H. Lowry et al, J. Biol. Chem., 193 265-275 (1951)]. Aliquots of the membrane preparation were stored at -70° C. Each preparation was characterized for PAF receptor number and dissociation constant (Kd). In binding assays 5 μl of test compound, solubilzed in DMSO, was added to polypropylene tubes along with 0.75 nM [^3 H]PAF and 200 mcl [0.075 nM] of membranes and 95 μl 10 mM Trizma 7.4, 20 mM CaCL2, 5 mg/ml human albumin. Tubes were incubated for 30 minutes at 24° C. The incubation was terminated by adding 4 ml of ice-cold 10 mM Trizma pH 7.4, 20 mM CaCl2 and 20 mg/ml BSA prior to vacuum filtration using Whatman GF/C filters. Filters were prepared and counted for a scintillation counter. All DPM values were corrected for background and isotope decay. Triplicate determinations for single doses were averaged. The amount of non-specific binding was subtracted from all dose averages, giving an amount of specific binding in all cases. The IC50 values for compounds of the invention determined by the Allfit program using percent displacement data. Allfit is a "basic" computer program for simultaneous curve fitting of a family of sigmoidal dose-response curves using the four parameter logistic equation.

For another assay, the system named is PAF-induced aggregation. The note with it: human platelet-rich plasma; cited from earlier work.
Another assay deals with human platelets. The experiment in a line: Assay B: Human Platelet Aggregation Inhibition (PAF-induced, platelet-rich plasma). The note with it: 37°. The assay is classed as cell-based. The method, then: Assay B: Human Platelet Aggregation Inhibition
A compound of the invention was evaluated for ability to inhibit PAF-induced aggregation of human platelets in a human-platelet-rich plasma. Venous blood was collected from donors who fasted for 8 hours and were instructed not to use antiinflammatory drugs for 2 weeks prior to blood draw. Blood was collected into syringes containing 0.1 ml of 3.8% [w/v] citrate and centrifuged in polypropylene tubes at 150xg for 20 minutes at room temperature. The platelet rich plasma [PRP] was collected and let sit for 20 minutes at room temperature. Platelet activating factor [PAF] was diluted in 0.9% NaCl with 0.25% bovine serum albumin. Silicon treated cuvettes with stir bars were placed in the 37° heating block of the platelet aggregometer [Bio/Data Corporation, Platelet Aggregation Profiler, Model PAP-4]. PRP and test compound were added to cuvettes and aggregation monitored for 10-15 seconds at 37° with stirring. PAF was added and aggregation monitored for an additional 3 minutes. Peak aggregation was considered the peak of the first aggregation wave usually 45-60 seconds after PAF addition. Inhibition of aggregation was determined by the following: 1- [(% aggregation in the presence of compound).div.(% maximal aggregation)]. A log/logit transformation was used to determine half maximal inhibitory concentration of a test compound [IC50 ].

Another assay deals with thromboxane synthetase. The note with it: cited from earlier work.
In assay [2] the test system is arachidonic acid-induced platelet aggregation. The note with it: cited from earlier work.
A further assay has as its system bronchoconstriction. The note with it: cited from earlier work.

Structures are written as SMILES. pIC50: −log10 of the molar value.

T1 sequence (P25105 whole entry): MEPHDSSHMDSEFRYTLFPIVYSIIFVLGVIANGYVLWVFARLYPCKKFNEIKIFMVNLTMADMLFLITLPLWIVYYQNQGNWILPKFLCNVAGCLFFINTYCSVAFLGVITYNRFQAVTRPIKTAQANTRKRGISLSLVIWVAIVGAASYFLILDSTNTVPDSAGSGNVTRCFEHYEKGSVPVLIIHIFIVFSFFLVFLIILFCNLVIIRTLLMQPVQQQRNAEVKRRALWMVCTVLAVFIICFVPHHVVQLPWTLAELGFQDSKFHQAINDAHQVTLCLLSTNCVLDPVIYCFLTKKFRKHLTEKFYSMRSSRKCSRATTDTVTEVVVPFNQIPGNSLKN

By inhibition is commonly meant the relative decrease from the control value, in per cent. A low value points to a weak effect. With `COc1cc(Cn2cccc3ncnc2-3)ccc1C(=O)N(C(C)C)C1CCCCC1` [Example 2, N-cyclohexyl-4-[(4H-imidazo[4,5-b]pyridin-4-yl)methyl]-2-methoxy-N-(1-methylethyl)benzamide], in assay [1] (at 10 μM), testing at 10 µM gave an inhibition of 40%.

The term pIC50 denotes the negative decadic logarithm of the IC50, by convention in mol/L. In assay [1], `COc1cc(C(=O)N(C(C)C)C2CCCCC2)ccc1Cn1cccc2nc(-c3ccccn3)nc1-2` [Example 7, N-cyclohexyl-3-methoxy-N-(1-methylethyl)-4-[[2-(2-pyridinyl)-4H-imidazo[4,5-b]pyridin-4-yl]methyl]benzamide] had a pIC50 of 6.14.

In assay [1], `COc1cc(C(=O)N(C(C)C)C2CCCCC2)ccc1Cn1cccc2ncnc1-2` [Example 3, N-cyclohexyl-4-[(4H-imidazo[4,5-b]pyridin-4-yl)methyl]-3-methoxy-N-(1-methylethyl)benzamide] showed a pIC50 of 6.19. The pIC50 values of the last two molecules are within 0.2 log units of each other. For the molecule `CC(C)N(C(=O)c1ccc(Cn2cccc3ncnc2-3)cc1)C1CCCCC1` [Example 9, N-cyclohexyl-4-[(4H-imidazo[4,5-b]pyridin-4 yl)methyl]-N-(1-methylethyl)benzamide], the negative-log IC50 (pIC50) in assay [1] is 6.07. In turn, `COc1cc(C(=O)N(C(C)C)C2CCCCC2)ccc1Cn1cccc2nc(C)nc1-2` [Example 5, N-cyclohexyl-3-methoxy-N-(1-methylethyl)-4-[(2-methyl-4H-imidazo[4,5-b]pyridin-4 yl]methyl]benzamide] had a pIC50 in assay [1] of 6.49.

As for `COc1cc(C(=O)N(C(C)C)C2CCCCC2)ccc1Cn1cccc2nc(CO)nc1-2` [Example 6, N-cyclohexyl-4-[[2-(hydroxymethyl)-4H-imidazo[4,5-b]pyridin-4-yl]methyl]-3 methoxy-N-(1-methylethyl)benzamide], the pIC50 in assay [1] was 6.34.

Regarding `CN(C(=O)c1ccc(Cn2cnc3cnccc32)cc1)C1CCCCC1` [N-cyclohexyl-N-methyl-4-(1H-imidazo[4,5-c]pyridin-1-yl-methyl)benzamide], the “inhibition of PAF-induced aggregation” value in the assay with PAF-induced aggregation is “inhibitor of PAF-induced aggregation”. Consider `COc1cc(Cn2cccc3ncnc2-3)ccc1C(=O)N(C1CCCC1)C1CC(C)CC(C)C1` (stereo not shown) [Example 4, N-cyclopentyl-N-(3,5-dimethylcyclohexyl)-4-[(4H-imidazo[4,5-b]pyridin-4-yl)methyl]-2-methoxybenzamide], for which the negative-log IC50 (pIC50) was 6.86 in assay [1] and 7.24 in the assay with human platelets. For the molecule `C(=Cc1ccccc1)Cn1ccnc1` [1-(3-phenyl-2-propenyl)1H-imidazole], in the assay with thromboxane synthetase, the inhibiting thromboxane synthetase entry is recorded as “effective in inhibiting”. The “inhibiting arachidonic acid-induced platelet aggregation” value in assay [2] is given as “effective in inhibiting”. Further, in the assay with bronchoconstriction, the inhibiting bronchoconstriction entry was “effective in inhibiting”. Molecule `COc1cc(C(=O)N(C2CCCC2)C2CCCC2)ccc1Cn1cccc2ncnc1-2` [Example 1, N,N-dicyclopentyl-4-[(4H-imidazo[4,5-b]pyridin-4-yl)methyl]-3-methoxybenzamide] had a pIC50 in assay [1] of 5.98.
